Test results taken from ChEMBL document CHEMBL3272117, “Synthesis of 1-(4-thio-beta-D-ribofuranosyl)-1,2,4-triazole-3-carboxamide” (J Med Chem, 1976).
Activity calls are given as the source filed them. The calls are words filed in the database; no cut-off is given here.

Legend:
Human alphaherpesvirus 1 = experiment: Antiviral activity against Herpes simplex virus type 1 infected in human KB cells; assay type: functional, organism-based
KB = experiment: Antiviral activity against Rhinovirus type 13 infected in human KB cells; assay type: functional, cell-based; conditions: Human rhinovirus A13
Human respirovirus 3 = experiment: Antiviral activity against Parainfluenza virus type 3 infected in human KB cells; assay type: functional, organism-based

Compound | Activity (Human alphaherpesvirus 1) | Activity (KB) | Activity (Human respirovirus 3)
NC(=O)c1ncn([C@@H]2O[C@H](CO)[C@@H](O)[C@H]2O)n1 | Active | Active | Active
NC(=O)c1ncn([C@@H]2S[C@H](CO)[C@@H](O)[C@H]2O)n1 | Active | – | –
